Results on 20 compounds are retold here after US20200016159A1, “N3-CYCLICALLY SUBSTITUTED THIENOURACILS AND USE THEREOF” (Bayer Aktiengesellschaft, priority 2016, published 2020).

In the assay the target is T1, human adenosine A2b receptor (Homo sapiens, UniProt P29275).
T1 sequence (P29275 1-332): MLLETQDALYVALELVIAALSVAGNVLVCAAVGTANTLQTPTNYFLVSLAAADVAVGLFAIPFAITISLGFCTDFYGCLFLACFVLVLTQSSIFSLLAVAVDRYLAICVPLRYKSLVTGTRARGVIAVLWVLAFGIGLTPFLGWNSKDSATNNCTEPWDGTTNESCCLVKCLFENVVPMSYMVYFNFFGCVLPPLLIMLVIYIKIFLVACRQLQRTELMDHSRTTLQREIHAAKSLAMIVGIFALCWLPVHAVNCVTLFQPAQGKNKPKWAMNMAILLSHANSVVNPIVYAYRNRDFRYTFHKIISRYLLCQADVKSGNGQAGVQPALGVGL
The experiment in a line: Cellular in vitro reporter gene test for A2b receptor activity (antagonism of NECA). The format is cell-based. Details: expressed in transfected cells; host or cells: CHO-K1 (Chinese hamster ovary) with CRE-luciferase reporter. The settings on record: recombinant CHO-K1 cells, CRE-luciferase reporter, co-incubation with EC50 concentration of NECA, 3 hours. Put shortly:
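CHO-K1 cells expressing recombinant human A2b receptor plus a CRE-driven firefly luciferase reporter. Compounds co-incubated with NECA at its same-day EC50 concentration; luminescence read 3 hours after NECA addition. IC50 values, sometimes means of several determinations rounded to two significant figures.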

Each structure is given as a SMILES string.

For the compound `COCCn1c(=O)n(C2CC2C)c(=O)c2c(C)c(CN3CCNC3=O)sc21` (single isomer, unassigned) [Example 260, 1-(2-Methoxyethyl)-5-methyl-3-(2-methylcyclopropyl)-6-[(2-oxoimidazolidin-1-yl)methyl]thieno[2,3-d]pyrimidine-2,4(1H,3H)-dione], the IC50 was determined as 82 nM.

Regarding `Cc1c(CN2CCNC2=O)sc2c1c(=O)n(C1CC1C)c(=O)n2CCOC(F)(F)F` (single isomer, unassigned) [Example 262, 5-Methyl-3-(2-methylcyclopropyl)-6-[(2-oxoimidazolidin-1-yl)methyl]-1-[2-(trifluoromethoxy)ethyl]thieno[2,3-d]pyrimidine-2,4(1H,3H)-dione], the IC50 came out at 1.2 nM.

`Cc1c(CN2CCNC2=O)sc2c1c(=O)n(C1CC1C)c(=O)n2CCOC(F)(F)F` (single isomer, unassigned) [Example 263, 5-Methyl-3-(2-methylcyclopropyl)-6-[(2-oxoimidazolidin-1-yl)methyl]-1-[2-(trifluoromethoxy)ethyl]thieno[2,3-d]pyrimidine-2,4(1H,3H)-dione]: the IC50 was found to be 1.1 nM.

Take `Cc1c(CN2CCNC2=NC#N)sc2c1c(=O)n(C1CC1C)c(=O)n2CCOC(F)(F)F` (single isomer, unassigned) [Example 265, [1-({5-Methyl-3-(2-methylcyclopropyl)-2,4-dioxo-1-[2-(trifluoromethoxy)ethyl]-1,2,3,4-tetrahydrothieno[2,3-d]pyrimidin-6-yl}methyl)imidazolidin-2-ylidene]cyanamide]: the IC50 amounted to 1.3 nM.

As to `Cc1c(CN2CCNC2=NC#N)sc2c1c(=O)n(C1CC1C)c(=O)n2CCOC(F)(F)F` (single isomer, unassigned) [Example 266, [1-({5-Methyl-3-(2-methylcyclopropyl)-2,4-dioxo-1-[2-(trifluoromethoxy)ethyl]-1,2,3,4-tetrahydrothieno[2,3-d]pyrimidin-6-yl}methyl)imidazolidin-2-ylidene]cyanamide], the IC50 stood at 0.96 nM.

Regarding `COC(=O)N=C1NCCN1Cc1sc2c(c1C)c(=O)n(C1CC1C)c(=O)n2CCOC(F)(F)F` (single isomer, unassigned) [Example 268, Methyl [1-({5-methyl-3-(2-methylcyclopropyl)-2,4-dioxo-1-[2-(trifluoromethoxy)ethyl]-1,2,3,4-tetrahydrothieno[2,3-d]pyrimidin-6-yl}methyl)imidazolidin-2-ylidene]carbamate], the IC50 worked out at 1.5 nM.

As for `COC(=O)N=C1NCCN1Cc1sc2c(c1C)c(=O)n(C1CC1C)c(=O)n2CCOC(F)(F)F` (single isomer, unassigned) [Example 269, Methyl [1-({5-methyl-3-(2-methylcyclopropyl)-2,4-dioxo-1-[2-(trifluoromethoxy)ethyl]-1,2,3,4-tetrahydrothieno[2,3-d]pyrimidin-6-yl}methyl)imidazolidin-2-ylidene]carbamate], the IC50 is 2 nM.

`Cc1c(Cn2cc[nH]c2=O)sc2c1c(=O)n(C1CC1C)c(=O)n2CCOC(F)(F)F` (single isomer, unassigned) [Example 271, 5-Methyl-3-(2-methylcyclopropyl)-6-[(2-oxo-2,3-dihydro-1H-imidazol-1-yl)methyl]-1-[2-(trifluoromethoxy)ethyl]thieno[2,3-d]pyrimidine-2,4(1H,3H)-dione]: the IC50 was 1.4 nM.

Turning to `Cc1c(Cn2cc[nH]c2=O)sc2c1c(=O)n(C1CC1C)c(=O)n2CCOC(F)(F)F` (single isomer, unassigned) [Example 272, 5-Methyl-3-(2-methylcyclopropyl)-6-[(2-oxo-2,3-dihydro-1H-imidazol-1-yl)methyl]-1-[2-(trifluoromethoxy)ethyl]thieno[2,3-d]pyrimidine-2,4(1H,3H)-dione], the IC50 is 1 nM.

In the case of `Cc1c(Cn2[nH]ccc2=O)sc2c1c(=O)n(C1CC1C)c(=O)n2CCOC(F)(F)F` (single isomer, unassigned) [Example 274, 5-Methyl-3-(2-methylcyclopropyl)-6-[(5-oxo-2,5-dihydro-1H-pyrazol-1-yl)methyl]-1-[2-(trifluoromethoxy)ethyl]thieno[2,3-d]pyrimidine-2,4(1H,3H)-dione], the IC50 worked out at 86 nM.

As to `Cc1c(Cn2[nH]ccc2=O)sc2c1c(=O)n(C1CC1C)c(=O)n2CCOC(F)(F)F` (single isomer, unassigned) [Example 275, 5-Methyl-3-(2-methylcyclopropyl)-6-[(5-oxo-2,5-dihydro-1H-pyrazol-1-yl)methyl]-1-[2-(trifluoromethoxy)ethyl]thieno[2,3-d]pyrimidine-2,4(1H,3H)-dione], the IC50 turned out to be 63 nM.

For `Cc1c(Cn2nc[nH]c2=O)sc2c1c(=O)n(C1CC1C)c(=O)n2CCOC(F)(F)F` (single isomer, unassigned) [Example 277, 5-Methyl-3-(2-methylcyclopropyl)-6-[(5-oxo-4,5-dihydro-1H-1,2,4-triazol-1-yl)methyl]-1-[2-(trifluoromethoxy)ethyl]thieno[2,3-d]pyrimidine-2,4(1H,3H)-dione], the 50% inhibitory concentration (IC50) was 3.9 nM.

In the case of `Cc1c(Cn2nc[nH]c2=O)sc2c1c(=O)n(C1CC1C)c(=O)n2CCOC(F)(F)F` (single isomer, unassigned) [Example 278, 5-Methyl-3-(2-methylcyclopropyl)-6-[(5-oxo-4,5-dihydro-1H-1,2,4-triazol-1-yl)methyl]-1-[2-(trifluoromethoxy)ethyl]thieno[2,3-d]pyrimidine-2,4(1H,3H)-dione], the IC50 turned out to be 1.6 nM.

For `Cc1c(CN2CCNC2=O)sc2c1c(=O)n(C1CC1C)c(=O)n2CCSC(F)(F)F` (single isomer, unassigned) [Example 280, 5-Methyl-3-(2-methylcyclopropyl)-6-[(2-oxoimidazolidin-1-yl)methyl]-1-{2-[(trifluoromethyl)sulfanyl]ethyl}thieno[2,3-d]pyrimidine-2,4(1H,3H)-dione], the IC50 came to 3.4 nM.

For the compound `Cc1c(CN2CCNC2=O)sc2c1c(=O)n(C1CC1C)c(=O)n2CCSC(F)(F)F` (single isomer, unassigned) [Example 281, 5-Methyl-3-(2-methylcyclopropyl)-6-[(2-oxoimidazolidin-1-yl)methyl]-1-{2-[(trifluoromethyl)sulfanyl]ethyl}thieno[2,3-d]pyrimidine-2,4(1H,3H)-dione], the IC50 is 2.1 nM.

With `Cc1c(CN2CCNC2=O)sc2c1c(=O)n([C@H]1C[C@@H]1C)c(=O)n2CC1CCO1` (single isomer, unassigned) [Example 283], the IC50 came out at 25 nM.

Consider `Cc1c(CN2CCNC2=O)sc2c1c(=O)n([C@H]1C[C@@H]1C)c(=O)n2CC1CCO1` (single isomer, unassigned) [Example 284], for which the IC50 came out at 8.6 nM.

Take `Cc1c(CN2CCNC2=O)sc2c1c(=O)n(C1CC1C)c(=O)n2C[C@H]1CCCO1` (single isomer, unassigned) [Example 287]: the IC50 is 2.8 nM.

Consider `Cc1c(CN2CCNC2=O)sc2c1c(=O)n(C1CC1C)c(=O)n2C[C@H]1CCCO1` (single isomer, unassigned) [Example 288], for which the half-maximal inhibitory concentration (IC50) worked out at 47 nM.

With `Cc1c(CN2CCNC2=O)sc2c1c(=O)n(C1CC1C)c(=O)n2CC1CCOC1` (single isomer, unassigned) [Example 290, 5-Methyl-3-(2-methylcyclopropyl)-6-[(2-oxoimidazolidin-1-yl)methyl]-1-(tetrahydrofuran-3-ylmethyl)thieno[2,3-d]pyrimidine-2,4(1H,3H)-dione], the IC50 turned out to be 270 nM.

A word on the IC50: it is the concentration that inhibits the measured activity by half.
